Columns and labels:
[1] = Measurement of Log P values by HPLC on reversed phase columns (EEC directive 79/831 Annex V.A8); assay type: physicochemical; conditions: Table 1, compounds of formula (I); method [a]: LC-UV, acidic range, 0.1% formic acid in water and acetonitrile
Alternaria brassicae = experiment: In vivo preventive test on Alternaria brassicae (leaf spot on radish or cabbage); conditions: 500 ppm of active ingredient, sprayed on young radish or cabbage plants 24 h before inoculation, evaluated 3 to 4 days after inoculation, read-out: efficacy
How it was run: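 Young radish or cabbage plants sprayed preventively with compound formulated in DMSO/acetone/Tween 80 and diluted in water; vehicle-treated plants as controls. Leaves inoculated by spraying an aqueous Alternaria brassicae spore suspension 24 h after treatment.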

Botrytis cinerea [2] = experiment: In vivo preventive test on Botrytis cinerea (grey mould); conditions: 500 ppm of active ingredient, sprayed on young gherkin or cabbage plants 24 h before inoculation, evaluated 4 to 5 days after inoculation, read-out: efficacy
How it was run: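 Compounds in DMSO/acetone/Tween 80 were diluted in water and sprayed onto young gherkin or cabbage plants; controls got solvent only. After 24 h, leaves were sprayed with an aqueous Botrytis cinerea spore suspension.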

Alternaria alternata = Alternaria alternata in vitro cell test; assay type: cell-based; conditions: 120 h, liquid culture, 5 days incubation, read-out: efficacy (inhibition of fungal growth); for inhibition at 20 ppm: 20 ppm of active ingredient
How it was run: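 Spores in glucose/mycological peptone/yeast extract liquid medium were exposed to DMSO-dissolved fungicides for 5 days. Inhibition of germination and mycelial growth was read spectrophotometrically, comparing absorbance against fungicide-free control wells.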

Pyricularia oryzae = experiment: microbe, parasite or virus in culture; assay type: cell-based; conditions: 120 h; for inhibition at 20 ppm: read-out: efficacy (inhibition of fungal growth), 20 ppm of active ingredient, liquid culture, 5 days incubation
Pyrenophora teres = Pyrenophora teres in vitro cell test; assay type: cell-based; conditions: 144 h, liquid culture, 6 days incubation, read-out: efficacy (inhibition of fungal growth); for inhibition at 20 ppm: 20 ppm of active ingredient
How it was run: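 Compounds in DMSO were added to P. teres spore suspensions in glucose/peptone/yeast-extract liquid medium, testing inhibition of spore germination and mycelium growth. After 6 days, mycelium growth was read by absorbance. Inhibition was calculated relative to fungicide-free control wells.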

Botrytis cinerea [3] = experiment: Botrytis cinerea in vitro cell test; assay type: cell-based; conditions: 144 h, liquid culture, 6 days incubation, read-out: efficacy (inhibition of fungal growth); for inhibition at 20 ppm: 20 ppm of active ingredient
How it was run: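 Compounds from DMSO stocks added at a range of concentrations to a defined mineral-salt/sucrose liquid medium inoculated with B. cinerea spores. After 6 days' incubation, mycelium growth was read by absorbance; inhibition of germination and growth was calculated against fungicide-free control wells.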

Fusarium culmorum = Fusarium culmorum in vitro cell test; assay type: cell-based; conditions: 120 h, liquid culture, 5 days incubation, read-out: efficacy (inhibition of fungal growth); for inhibition at 20 ppm: 20 ppm of active ingredient
How it was run: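 Spores in liquid mineral-salts/saccharose medium exposed to compounds (DMSO ≤1% final) for 5 days. Mycelium growth measured spectrometrically, with inhibition derived from absorbance relative to fungicide-free control wells.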

| SMILES | chromatographic logP [1] | pest or weed control at 500 ppm (Alternaria brassicae) [%] | pest or weed control at 500 ppm (Botrytis cinerea [2]) [%] | inhibition at 20 ppm (Alternaria alternata) [%] | inhibition at 20 ppm (Pyricularia oryzae) [%] | inhibition at 20 ppm (Pyrenophora teres) [%] | inhibition at 20 ppm (Botrytis cinerea [3]) [%] | inhibition at 20 ppm (Fusarium culmorum) [%] | inhibition at 50 µM (Alternaria alternata; 50 μMol/l of active ingredient) [%] | inhibition at 50 µM (Pyricularia oryzae; read-out: efficacy (inhibition of fungal growth), 50 μMol/l of active ingredient, liquid culture, 5 days incubation) [%] | inhibition at 50 µM (Pyrenophora teres; 50 μMol/l of active ingredient) [%] | inhibition at 50 µM (Botrytis cinerea [3]; 50 μMol/l of active ingredient) [%] | inhibition at 50 µM (Fusarium culmorum; 50 μMol/l of active ingredient) [%] |
| --- | --- | --- | --- | --- | --- | --- | --- | --- | --- | --- | --- | --- | --- |
| Cc1cccc(Sc2cnc3ccccc3c2C2=NOC[C@H](Cc3ccc(C)cc3C)N2)c1 (racemic) [Compound I-023] | 4.37 | 90 to 100 | 90 to 100 | 90 to 100 | 90 to 100 | 90 to 100 | 90 to 100 | 90 to 100 |  |  |  |  |  |
| Cc1cc([C@@H]2CON=C(c3c(Sc4cccc(Cl)c4)nnc(C)c3C)N2)c(C)s1 (racemic) [Compound I-100] | 3.49 | 90 to 100 | 90 to 100 |  |  |  |  |  | 90 to 100 | 90 to 100 | 90 to 100 | 90 to 100 | 90 to 100 |
| Cc1ccc(C[C@@H]2CON=C(c3nc(C)ncc3Sc3cccc(Cl)c3)N2)c(Cl)c1 (racemic) [Compound I-033] | 5.24 | 80 to 89 | 90 to 100 |  |  | 90 to 100 | 90 to 100 | 90 to 100 |  |  |  |  |  |
| Cc1ccc(C[C@@H]2CON=C(c3c(Sc4cccc(C(F)(F)F)c4)nnc4ccccc34)N2)c(C)c1 (racemic) [Compound I-029] | 4.66 | 80 to 89 | 90 to 100 | 90 to 100 | 90 to 100 | 90 to 100 | 90 to 100 | 80 to 89 |  |  |  |  |  |
| FC(F)(F)c1cccc(Sc2cnc(Cl)cc2C2=NOC[C@@H](Cc3ccc(Cl)cc3Cl)N2)c1 (racemic) [Compound I-022] | 4.97 | 80 to 89 | 90 to 100 |  | 80 to 89 | 90 to 100 | 90 to 100 | 90 to 100 |  |  |  |  |  |
| Cc1cccc(Sc2cnc(C)nc2C2=NOC[C@@H](Cc3ccc(C)cc3C)N2)c1 (racemic) [Compound I-032] | 5.09 | 90 to 100 | 90 to 100 | 70 to 79 | 70 to 79 | 90 to 100 | 90 to 100 | 80 to 89 |  |  |  |  |  |
| Cc1ccc(C[C@@H]2CON=C(c3nc(C)ncc3Sc3cccc(Cl)c3)N2)c(C)c1 (racemic) [Compound I-031] | 5.16 | 90 to 100 | 90 to 100 | 70 to 79 |  | 90 to 100 | 90 to 100 | 90 to 100 |  |  |  |  |  |
| Cc1ccc(C[C@H]2CON=C(c3c(Sc4cccc(C(F)(F)F)c4)cnc4ccccc34)N2)c(C)c1 (racemic) [Compound I-030] | 4.57 | 70 to 79 | 90 to 100 | 90 to 100 | 90 to 100 | 90 to 100 | 90 to 100 | 90 to 100 |  |  |  |  |  |

Reference: patent US20250042886A1, “BIS(HETERO)ARYL THIOETHER OXADIAZINES AS FUNGICIDAL COMPOUNDS” (Bayer Aktiengesellschaft, priority 2021, published 2025)
